Laboratory results taken from ChEMBL document CHEMBL1136548, “1,3,4 Trisubstituted pyrrolidine CCR5 receptor antagonists bearing 4-aminoheterocycle substituted piperidine side chains” (Bioorg Med Chem Lett, 2003).

Experiments:
[1] = Pharmacokinetic parameter expressed as plasma clearance in rat; assay type: ADME, organism-based; conditions: read-out: Clp
[2] = Maximum plasma concentration was evaluated in rat; assay type: ADME, organism-based
[3] = Bioavailability in rat; assay type: ADME, organism-based; conditions: in vivo
[4] = Half life was evaluated in rat; assay type: ADME, organism-based; conditions: in vivo
[5] = molecular target: T1, C-C chemokine receptor type 5 (Homo sapiens, UniProt P51681); assay: Displacement inhibition of 125-I labeled MIP-alpha from CCR5 receptor expressed on CHO cell membranes
Target sequence in this assay (P51681 whole entry): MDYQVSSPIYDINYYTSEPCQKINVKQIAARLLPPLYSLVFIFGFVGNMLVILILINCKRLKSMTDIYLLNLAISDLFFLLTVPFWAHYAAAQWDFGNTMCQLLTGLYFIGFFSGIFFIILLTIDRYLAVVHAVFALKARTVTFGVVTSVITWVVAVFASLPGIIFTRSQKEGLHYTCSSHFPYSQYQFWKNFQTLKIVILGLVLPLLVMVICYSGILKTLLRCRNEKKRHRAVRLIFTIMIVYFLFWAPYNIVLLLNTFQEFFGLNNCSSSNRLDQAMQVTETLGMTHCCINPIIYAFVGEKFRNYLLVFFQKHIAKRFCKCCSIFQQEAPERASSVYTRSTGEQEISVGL

[6] = molecular target: T1, C-C chemokine receptor type 5; assay: Inhibition over 48 hr of BAL strain HIV infection of HeLa Magi cells expressing CCR5; Not active; assay type: functional, cell-based
Target sequence in this assay (P51681 whole entry): as above

[7] = molecular target: T1, C-C chemokine receptor type 5; assay: Compound tested for inhibiting the displacement of 125-I labeled MIP-alpha from CCR5 receptor expressed on CHO cell membranes at 1000 nM
Target sequence in this assay (P51681 whole entry, looked up): as the sequence (P51681 whole entry) above

[8] = molecular target: T1, C-C chemokine receptor type 5; assay: Inhibition over 48 hr of BAL strain HIV infection of HeLa Magi cells expressing CCR5; assay type: functional, cell-based
Target sequence in this assay (P51681 whole entry, looked up): as the sequence (P51681 whole entry) above

[9] = Tested for antiviral activity in peripheral blood mononuclear cells (PBMC); assay type: functional
[10] = molecular target: T1, C-C chemokine receptor type 5; assay: Inhibition over 48 hr of BAL strain HIV infection of HeLa Magi cells expressing CCR5; not active; assay type: functional, cell-based
Target sequence in this assay (P51681 whole entry): as above

Compound	clearance [1]	Cmax [2]	bioavailability [3]	IC50 [5]	further results
CCN(c1ncccn1)C1CCN(C[C@H]2CN([C@H](CC3CCC3)C(=O)O)C[C@@H]2c2cccc(F)c2)CC1	26 mL/min/kg	210 nM	33%	1.5 nM	half-life [4]: 1.1 h
CCCN(c1cccnc1)C1CCN(C[C@H]2CN([C@@H](C(=O)O)C3CCCCC3)C[C@@H]2c2ccccc2)CC1	106 mL/min/kg	19 nM	8%	5 nM	–
CCCN(c1ncccn1)C1CCN(C[C@H]2CN([C@@H](C(=O)O)C3CCCCC3)C[C@@H]2c2ccccc2)CC1	17 mL/min/kg	49 nM	8%	6.6 nM	–
C=CCN(c1ccccc1)C1CCN(C[C@H]2CN(C(=O)C3CCCCC3)C[C@@H]2c2ccccc2)CC1	–	–	–	42 nM	IC50 [6]: Not Active
CCCCCCN(c1ccccn1)C1CCN(C[C@H]2CN(C(=O)C3CCCCC3)C[C@@H]2c2ccccc2)CC1	–	–	–	–	inhibition [7]: 64%
CCCN(c1ccccn1)C1CCN(C[C@H]2CN(C(=O)C3CCCCC3)C[C@@H]2c2ccccc2)CC1	–	–	–	12 nM	–
O=C(O)[C@@H](CC1CCC1)N1C[C@H](CN2CCC(N(CC3CC3)c3ncccn3)CC2)[C@@H](c2cccc(F)c2)C1	28 mL/min/kg	–	–	1.1 nM	half-life [4]: 0.7 h
C=CCN(C(=O)OCc1ccc([N+](=O)[O-])cc1)C1CCN(C[C@H]2CN(C(=O)c3ccccc3Cl)C[C@@H]2c2ccccc2)CC1	–	–	–	–	IC90 [8]: 1 nM; IC95 [9]: 31 nM
C=CCN(c1ccc(C(F)(F)F)cn1)C1CCN(C[C@H]2CN(C(=O)C3CCCCC3)C[C@@H]2c2ccccc2)CC1	–	–	–	21 nM	–
C=CCN(c1ncccn1)C1CCN(C[C@H]2CN(C(=O)C3CCCCC3)C[C@@H]2c2ccccc2)CC1	–	–	–	12 nM	–
CCCN(c1ccncn1)C1CCN(C[C@H]2CN([C@H](CC3CCC3)C(=O)O)C[C@@H]2c2cccc(F)c2)CC1	90 mL/min/kg	–	–	1.2 nM	half-life [4]: 0.9 h
CCCN(c1ccccn1)C1CCN(C[C@H]2CN(C(=O)c3ccccc3Cl)C[C@@H]2c2ccccc2)CC1	–	–	–	14 nM	–
CCCN(c1ncc(F)cn1)C1CCN(C[C@H]2CN([C@H](CC3CCC3)C(=O)O)C[C@@H]2c2cccc(F)c2)CC1	–	–	–	0.4 nM	–
O=C(C1CCCCC1)N1C[C@H](CN2CCC(N(Cc3ccccc3)c3ccccn3)CC2)[C@@H](c2ccccc2)C1	–	–	–	–	inhibition [7]: 78%
C=CCN(c1cccnc1)C1CCN(C[C@H]2CN(C(=O)C3CCCCC3)C[C@@H]2c2ccccc2)CC1	–	–	–	23 nM	–
C=CCN(c1ccccn1)C1CCN(C[C@H]2CN(C(=O)C3CCCCC3)C[C@@H]2c2ccccc2)CC1	–	–	–	6 nM	–
CCCN(c1ncccn1)C1CCN(C[C@H]2CN([C@H](CC3CCC3)C(=O)O)C[C@@H]2c2cccc(F)c2)CC1	28 mL/min/kg	256 nM	29%	1.8 nM	half-life [4]: 1.1 h
CCCN(c1ncc(C(F)(F)F)cn1)C1CCN(C[C@H]2CN([C@H](CC3CCC3)C(=O)O)C[C@@H]2c2cccc(F)c2)CC1	9 mL/min/kg	433 nM	72%	0.5 nM	half-life [4]: 2.8 h
C=CCN(c1ccncc1)C1CCN(C[C@H]2CN(C(=O)C3CCCCC3)C[C@@H]2c2ccccc2)CC1	–	–	–	66 nM	IC50 [10]: Not Active
CCCN(c1nccc(C(F)(F)F)n1)C1CCN(C[C@H]2CN([C@H](CC3CCC3)C(=O)O)C[C@@H]2c2cccc(F)c2)CC1	13 mL/min/kg	177 nM	25%	1.2 nM	half-life [4]: 1.5 h
O=C(C1CCCCC1)N1C[C@H](CN2CCC(N(CC3CC3)c3ccccn3)CC2)[C@@H](c2ccccc2)C1	–	–	–	9 nM	–
CCCN(c1cncnc1)C1CCN(C[C@H]2CN([C@H](CC3CCC3)C(=O)O)C[C@@H]2c2cccc(F)c2)CC1	81 mL/min/kg	28 nM	8%	1.7 nM	half-life [4]: 0.3 h
CCCN(c1ccccn1)C1CCN(C[C@H]2CN(C(=O)N3CCCC3)C[C@@H]2c2ccccc2)CC1	–	–	–	9 nM	–
CCCN(c1nccc(OC)n1)C1CCN(C[C@H]2CN([C@H](CC3CCC3)C(=O)O)C[C@@H]2c2cccc(F)c2)CC1	–	–	–	0.8 nM	–
CCCN(c1ccccn1)C1CCN(C[C@H]2CN(C(=O)C3CCC3)C[C@@H]2c2ccccc2)CC1	–	–	–	10 nM	–
CCCN(c1ncccn1)C1CCN(C[C@H]2CN([C@@H](C(=O)O)C3CCCCC3)C[C@@H]2c2cccc(F)c2)CC1	13 mL/min/kg	140 nM	20%	1.6 nM	–
CCCN(c1ccccn1)C1CCN(C[C@H]2CN([C@@H](C(=O)O)C3CCCCC3)C[C@@H]2c2ccccc2)CC1	53 mL/min/kg	53 nM	20%	3.9 nM	–
